Test results taken from PubChem BioAssay (NCI).
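Five compound concentrations were applied to cells in 96-well plates for 48 hours; endpoints were derived by simple linear interpolation of the resulting dose-response curve. GI50 marks 50% less growth. TGI is the concentration that stops growth completely.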

Legend:
Experiment in all cases: NCI anticancer screen, dose series, 48 h
OVCAR-4 ovarian = test system: OVCAR-4 ovarian
SF-539 CNS = test system: SF-539 CNS
CCRF-CEM leukemia = test system: CCRF-CEM leukemia
SK-MEL-28 melanoma = test system: SK-MEL-28 melanoma
RXF 393 renal = test system: RXF 393 renal
OVCAR-8 ovarian = test system: OVCAR-8 ovarian
SN12C renal = test system: SN12C renal
MALME-3M melanoma = test system: MALME-3M melanoma
MDA-N = test system: MDA-N

Compound	TGI (OVCAR-4 ovarian)	TGI (SF-539 CNS)	TGI (CCRF-CEM leukemia)	TGI (SK-MEL-28 melanoma)	TGI (RXF 393 renal)	TGI (OVCAR-8 ovarian)	TGI (SN12C renal)	TGI (MALME-3M melanoma)	TGI (MDA-N)	GI50 (CCRF-CEM leukemia)
COc1ccc(NC(=S)Nc2cccc(C)n2)cc1	> 100 µM	> 100 µM	> 100 µM	> 100 µM	> 100 µM	> 100 µM				
CCN(CCCl)c1ccc(NC(=O)c2cc(C(=O)NCCN(C)C)cc(C(=O)Nc3ccc(N(CC)CCCl)cc3)c2)cc1	43.5 µM	12.3 µM	3.27 µM	41.4 µM	30.8 µM	25.2 µM	21 µM	34.5 µM	29.6 µM	
COC(=O)C1CCC(=S)N1C(C)=O (stereo unspecified)	> 100 µM			> 100 µM	> 100 µM	> 100 µM		> 100 µM	> 100 µM	
CSC(=NCCCN=C(NS(=O)(=O)c1ccc(Cl)cc1)SC)NS(=O)(=O)c1ccc(Cl)cc1	> 100 µM	> 100 µM	> 100 µM	> 100 µM		> 100 µM	> 100 µM	72.7 µM	61.4 µM	
NNC(=O)COc1nc(-c2cccs2)nc2ccc(I)cc12	77 µM		88.4 µM	56.2 µM	> 100 µM	> 100 µM	92.2 µM	45.1 µM	> 100 µM	20 µM
N#Cc1c(N)n(-c2nc3ccccc3s2)c(=O)c2cc([N+](=O)[O-])ccc12	> 100 µM	28 µM	18.9 µM	> 100 µM	41.9 µM	43.9 µM	> 100 µM	36.7 µM	> 82.7 µM	
O=CC12CCCN1CCC2	> 100 µM		> 100 µM	> 100 µM	> 100 µM		> 100 µM	> 100 µM	> 100 µM	
Nc1c(/C=C/c2cc3cc(C4=NCCN4)ccc3o2)[nH]c2cc(C3=NCCN3)ccc12	> 100 µM	> 100 µM		97.4 µM	> 100 µM	> 100 µM	> 100 µM		> 100 µM	
O=C(NCc1ccc(Cl)c(Cl)c1)c1nc2ccccc2nc1NCc1ccc(Cl)c(Cl)c1		> 100 µM	> 100 µM	> 100 µM	> 100 µM	> 100 µM	> 100 µM		> 100 µM	
CCCCC(C)(C/C=C/[C@@H]1[C@@H](C(O)CCCCCC(=O)OC)C(=O)C[C@H]1O[Si](C)(C)C(C)(C)C)O[Si](C)(C)C (stereo partly specified)	> 100 µM	> 100 µM	85.4 µM	> 100 µM	> 100 µM	> 100 µM	> 100 µM	> 100 µM		
CO[C@@H](c1ccccc1)[C@H](O)[C@@](O)(c1ccccc1)P(=O)(OC)OC		> 100 µM	> 100 µM	> 100 µM	> 100 µM	> 100 µM	> 100 µM	> 100 µM	> 100 µM	
Oc1[nH]c2ccccc2c1N=Nc1nc(-c2ccccc2)cs1	> 100 µM	28.9 µM		> 100 µM		> 100 µM	> 100 µM		> 100 µM	
CC(C)=C[C@@H]1C[C@H](C)[C@H]2CC[C@H](C)[C@H]3C(=O)C(O)=C(C)C(=O)[C@]123	> 100 µM	> 100 µM	> 100 µM	> 100 µM		> 100 µM	> 100 µM	> 100 µM	> 100 µM	
Nc1nc(Nc2cc(F)c(Cl)c(F)c2)cc(=O)[nH]1	> 100 µM	> 100 µM	> 100 µM	> 100 µM		> 100 µM	> 100 µM	> 100 µM		
N#Cc1c2c(c(Nc3ccc(Cl)cc3)n3c1nc1ccccc13)CCCC2	> 96.6 µM	> 100 µM	> 100 µM	> 100 µM	> 85.1 µM	> 100 µM	> 100 µM	> 100 µM		
Cc1ccc(C(=O)C2CC3(CCC2(O)c2ccc(C)cc2)CC(=O)Nc2ccccc2C3=O)cc1 (stereo unspecified)		> 100 µM	> 100 µM	> 100 µM	> 100 µM	> 100 µM	> 100 µM	> 100 µM	> 100 µM	
CC1SCCc2nc3ccccc3n21 (stereo unspecified)	> 100 µM	> 100 µM	> 100 µM	> 100 µM	> 100 µM	> 100 µM	> 100 µM		> 100 µM	
O=C(C[N+]1(c2ccccc2)CCOCC1)c1ccccc1	> 100 µM			0.0908 µM	> 100 µM	> 100 µM	> 100 µM	> 100 µM	> 100 µM	
O=[N+]([O-])c1cccc2c1[nH]c1c(-c3ccccc3)nccc12	> 33.2 µM	> 69 µM	21.9 µM	21.9 µM	12.4 µM	9.32 µM	> 73.1 µM	6.43 µM		
N=c1sc(N2CCOCC2)nn1CC(=O)c1ccccc1	> 100 µM		> 100 µM	> 100 µM	> 100 µM	> 100 µM	> 100 µM	> 100 µM	> 100 µM	
CC(=O)Oc1cc(OC(C)=O)c2c(c1C)CC[C@@H]1[C@@H]2CC[C@]2(C)[C@@H](OC(C)=O)CC[C@@H]12		30.4 µM	49.4 µM	33 µM	27.7 µM	42.4 µM	33.7 µM	29.2 µM	32.9 µM	
CCCCSC1=N/C(=C\c2ccccc2O)C(Cl)=N1	> 100 µM	> 100 µM		> 100 µM	> 100 µM	> 100 µM	> 100 µM	> 100 µM	> 100 µM	
Cc1cccc2c1Oc1ncccc1C2NC(=O)CN(C)C (stereo unspecified)	> 10 µM	> 10 µM	> 10 µM			> 10 µM	> 10 µM	> 10 µM		
C(/Cc1ccc2c(c1)OCO2)=N\NC1=NCCCCN1	> 100 µM	> 100 µM	> 100 µM	> 100 µM	> 100 µM	> 100 µM	> 100 µM	> 100 µM		
Nn1c(=S)[nH]nc(/C=C/c2c(O)ccc3ccccc23)c1=O	25 µM	> 100 µM	9.7 µM	73.5 µM		4.81 µM		44.6 µM	> 100 µM	
CCCCN1/C(=N/Nc2n[nH]c(=O)c3ccccc23)SCC1c1ccc(Cl)cc1 (stereo unspecified)	> 100 µM	33.1 µM		47.1 µM	63.1 µM	> 100 µM	> 100 µM	62 µM		
